Columns and labels:
Conditions in all cases: binder
BMPR2 = target: T1, BMPR2 (Homo sapiens, UniProt Q13873)
T1 sequence (Q13873 1-1038): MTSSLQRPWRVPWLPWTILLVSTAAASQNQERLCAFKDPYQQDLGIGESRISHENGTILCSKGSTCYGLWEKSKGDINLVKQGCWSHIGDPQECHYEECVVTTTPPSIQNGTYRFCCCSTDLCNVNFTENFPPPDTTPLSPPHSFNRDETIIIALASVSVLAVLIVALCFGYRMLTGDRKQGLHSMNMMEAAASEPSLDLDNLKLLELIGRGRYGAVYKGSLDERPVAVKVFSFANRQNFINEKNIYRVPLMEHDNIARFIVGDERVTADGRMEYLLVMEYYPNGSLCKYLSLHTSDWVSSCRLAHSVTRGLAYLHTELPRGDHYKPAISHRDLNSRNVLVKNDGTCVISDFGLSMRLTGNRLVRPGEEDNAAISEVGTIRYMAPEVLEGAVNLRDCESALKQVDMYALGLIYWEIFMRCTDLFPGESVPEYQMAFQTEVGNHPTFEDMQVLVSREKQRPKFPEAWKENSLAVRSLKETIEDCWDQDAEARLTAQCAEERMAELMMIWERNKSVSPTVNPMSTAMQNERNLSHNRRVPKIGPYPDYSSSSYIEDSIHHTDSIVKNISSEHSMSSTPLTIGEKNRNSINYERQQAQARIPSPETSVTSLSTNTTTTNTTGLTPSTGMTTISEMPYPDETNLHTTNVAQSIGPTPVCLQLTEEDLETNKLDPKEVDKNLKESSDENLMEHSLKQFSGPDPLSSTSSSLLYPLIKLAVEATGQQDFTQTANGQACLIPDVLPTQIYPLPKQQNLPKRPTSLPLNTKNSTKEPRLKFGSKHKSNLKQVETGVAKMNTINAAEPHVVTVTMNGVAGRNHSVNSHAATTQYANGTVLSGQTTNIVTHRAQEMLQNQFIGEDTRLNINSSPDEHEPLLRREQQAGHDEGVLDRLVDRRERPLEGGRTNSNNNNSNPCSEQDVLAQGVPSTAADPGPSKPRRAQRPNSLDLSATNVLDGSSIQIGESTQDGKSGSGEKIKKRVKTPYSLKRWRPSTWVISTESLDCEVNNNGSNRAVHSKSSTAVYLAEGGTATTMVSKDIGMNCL

BRAF = BRAF (Homo sapiens, UniProt P15056)
CaMK2b = CaMK2b (Homo sapiens, UniProt Q13554)
EphA2 = EphA2 (Homo sapiens, UniProt P29317)
Erk2 = Erk2 (Homo sapiens, UniProt P28482)
FES = FES (Homo sapiens, UniProt P07332)
GPRK5 = GPRK5 (Homo sapiens, UniProt P34947)
JNK1 = JNK1 (Homo sapiens, UniProt P45983)
MAPKAPK2 = MAPKAPK2 (Homo sapiens, UniProt P49137)
MSSK1 = MSSK1 (Homo sapiens, UniProt Q9UPE1)
MST2 = target: T2, MST2 (Homo sapiens, UniProt Q13188)
T2 sequence (Q13188 1-491): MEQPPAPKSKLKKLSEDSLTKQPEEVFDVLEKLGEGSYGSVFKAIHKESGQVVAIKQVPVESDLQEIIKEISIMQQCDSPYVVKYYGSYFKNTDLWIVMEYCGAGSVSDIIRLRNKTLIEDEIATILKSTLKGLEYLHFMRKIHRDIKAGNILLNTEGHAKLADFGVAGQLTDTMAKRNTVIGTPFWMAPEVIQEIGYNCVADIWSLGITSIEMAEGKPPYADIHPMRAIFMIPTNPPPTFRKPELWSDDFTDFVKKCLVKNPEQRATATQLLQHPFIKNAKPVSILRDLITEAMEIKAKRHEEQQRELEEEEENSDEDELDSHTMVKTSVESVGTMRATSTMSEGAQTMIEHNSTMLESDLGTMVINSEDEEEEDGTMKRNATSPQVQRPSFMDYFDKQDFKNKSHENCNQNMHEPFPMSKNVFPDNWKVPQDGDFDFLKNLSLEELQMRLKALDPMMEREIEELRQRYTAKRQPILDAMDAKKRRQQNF

NQO2A = target: T3, NQO2A (Homo sapiens, UniProt P16083)
T3 sequence (P16083 1-231): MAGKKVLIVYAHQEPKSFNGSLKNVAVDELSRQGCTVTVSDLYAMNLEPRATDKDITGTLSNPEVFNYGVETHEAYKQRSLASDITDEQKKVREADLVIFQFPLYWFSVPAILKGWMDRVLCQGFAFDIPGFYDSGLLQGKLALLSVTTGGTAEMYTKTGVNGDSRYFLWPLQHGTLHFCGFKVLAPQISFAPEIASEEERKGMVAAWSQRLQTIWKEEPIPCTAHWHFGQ

Sequence of GPRK5 (P34947 whole entry): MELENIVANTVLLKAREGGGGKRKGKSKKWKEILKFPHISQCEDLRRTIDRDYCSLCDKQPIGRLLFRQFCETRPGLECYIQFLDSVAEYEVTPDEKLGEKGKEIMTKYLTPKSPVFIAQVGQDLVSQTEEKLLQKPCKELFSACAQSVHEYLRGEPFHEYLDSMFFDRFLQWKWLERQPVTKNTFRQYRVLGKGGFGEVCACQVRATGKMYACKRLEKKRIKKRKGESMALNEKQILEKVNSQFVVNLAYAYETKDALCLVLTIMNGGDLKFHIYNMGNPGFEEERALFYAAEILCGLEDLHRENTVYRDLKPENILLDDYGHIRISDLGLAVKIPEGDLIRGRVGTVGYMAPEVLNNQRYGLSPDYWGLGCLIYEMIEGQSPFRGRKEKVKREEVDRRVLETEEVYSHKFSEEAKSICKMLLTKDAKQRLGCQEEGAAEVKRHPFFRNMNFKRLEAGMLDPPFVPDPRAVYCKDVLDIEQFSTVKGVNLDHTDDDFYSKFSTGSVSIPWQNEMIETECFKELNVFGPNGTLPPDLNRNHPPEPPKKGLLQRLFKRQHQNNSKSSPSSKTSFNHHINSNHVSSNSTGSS
Sequence of MAPKAPK2 (P49137 whole entry): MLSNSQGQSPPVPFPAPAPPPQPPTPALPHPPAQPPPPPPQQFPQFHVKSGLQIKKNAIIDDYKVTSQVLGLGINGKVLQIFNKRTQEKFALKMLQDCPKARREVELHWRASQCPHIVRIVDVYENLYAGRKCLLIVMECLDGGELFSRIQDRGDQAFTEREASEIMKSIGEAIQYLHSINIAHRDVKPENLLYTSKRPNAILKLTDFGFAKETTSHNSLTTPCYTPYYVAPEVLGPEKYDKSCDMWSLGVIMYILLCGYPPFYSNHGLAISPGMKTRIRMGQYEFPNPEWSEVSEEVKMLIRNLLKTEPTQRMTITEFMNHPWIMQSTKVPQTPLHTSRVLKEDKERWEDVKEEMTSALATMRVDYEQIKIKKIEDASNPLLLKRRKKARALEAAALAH
Sequence of MSSK1 (Q9UPE1 whole entry): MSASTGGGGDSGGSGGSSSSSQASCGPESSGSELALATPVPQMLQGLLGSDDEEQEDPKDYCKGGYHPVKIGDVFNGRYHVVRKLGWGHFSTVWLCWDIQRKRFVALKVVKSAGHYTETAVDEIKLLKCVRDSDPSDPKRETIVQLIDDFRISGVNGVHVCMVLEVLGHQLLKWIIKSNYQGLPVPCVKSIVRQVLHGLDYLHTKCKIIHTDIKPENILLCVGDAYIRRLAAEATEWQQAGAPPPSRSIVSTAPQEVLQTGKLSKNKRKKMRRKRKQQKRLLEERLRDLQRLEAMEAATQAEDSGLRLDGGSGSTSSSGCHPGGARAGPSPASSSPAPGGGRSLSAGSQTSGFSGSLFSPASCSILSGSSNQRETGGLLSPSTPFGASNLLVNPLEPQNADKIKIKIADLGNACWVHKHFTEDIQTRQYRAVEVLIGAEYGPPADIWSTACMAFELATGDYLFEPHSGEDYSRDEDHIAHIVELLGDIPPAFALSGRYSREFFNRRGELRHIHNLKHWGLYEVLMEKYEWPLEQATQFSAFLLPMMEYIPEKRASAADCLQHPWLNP
Sequence of BRAF (P15056 whole entry): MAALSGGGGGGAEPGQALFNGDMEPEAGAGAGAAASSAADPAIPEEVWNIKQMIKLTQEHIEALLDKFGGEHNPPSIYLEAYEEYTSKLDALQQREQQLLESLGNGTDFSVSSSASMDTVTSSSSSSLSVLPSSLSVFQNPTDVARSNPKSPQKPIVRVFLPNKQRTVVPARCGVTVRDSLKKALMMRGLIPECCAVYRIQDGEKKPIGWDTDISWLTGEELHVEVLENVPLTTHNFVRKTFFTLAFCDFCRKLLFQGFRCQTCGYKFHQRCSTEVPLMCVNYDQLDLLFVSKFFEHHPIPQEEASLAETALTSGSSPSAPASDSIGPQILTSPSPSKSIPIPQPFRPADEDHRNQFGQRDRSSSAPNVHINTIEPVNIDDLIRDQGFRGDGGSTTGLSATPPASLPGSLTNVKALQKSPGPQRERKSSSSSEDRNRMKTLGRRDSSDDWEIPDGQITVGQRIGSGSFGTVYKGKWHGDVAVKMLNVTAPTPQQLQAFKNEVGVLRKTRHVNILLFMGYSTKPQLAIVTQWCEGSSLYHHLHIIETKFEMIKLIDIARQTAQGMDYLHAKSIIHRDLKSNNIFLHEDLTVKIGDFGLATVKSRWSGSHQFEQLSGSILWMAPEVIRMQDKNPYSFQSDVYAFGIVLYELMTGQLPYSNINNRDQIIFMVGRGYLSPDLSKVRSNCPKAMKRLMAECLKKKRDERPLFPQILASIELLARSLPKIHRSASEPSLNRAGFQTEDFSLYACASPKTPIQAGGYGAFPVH
Sequence of JNK1 (P45983 whole entry): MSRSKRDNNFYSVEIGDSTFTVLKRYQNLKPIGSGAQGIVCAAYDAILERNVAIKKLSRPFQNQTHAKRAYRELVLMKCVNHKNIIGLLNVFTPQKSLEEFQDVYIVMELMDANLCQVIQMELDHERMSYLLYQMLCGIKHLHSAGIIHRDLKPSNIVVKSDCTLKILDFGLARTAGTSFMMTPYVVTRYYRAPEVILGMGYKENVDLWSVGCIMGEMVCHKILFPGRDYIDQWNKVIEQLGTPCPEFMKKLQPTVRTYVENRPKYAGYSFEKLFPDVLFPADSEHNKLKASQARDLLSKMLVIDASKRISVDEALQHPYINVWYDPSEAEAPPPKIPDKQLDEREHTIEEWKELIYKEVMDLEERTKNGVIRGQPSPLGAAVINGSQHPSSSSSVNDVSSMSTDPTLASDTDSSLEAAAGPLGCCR
Sequence of FES (P07332 whole entry): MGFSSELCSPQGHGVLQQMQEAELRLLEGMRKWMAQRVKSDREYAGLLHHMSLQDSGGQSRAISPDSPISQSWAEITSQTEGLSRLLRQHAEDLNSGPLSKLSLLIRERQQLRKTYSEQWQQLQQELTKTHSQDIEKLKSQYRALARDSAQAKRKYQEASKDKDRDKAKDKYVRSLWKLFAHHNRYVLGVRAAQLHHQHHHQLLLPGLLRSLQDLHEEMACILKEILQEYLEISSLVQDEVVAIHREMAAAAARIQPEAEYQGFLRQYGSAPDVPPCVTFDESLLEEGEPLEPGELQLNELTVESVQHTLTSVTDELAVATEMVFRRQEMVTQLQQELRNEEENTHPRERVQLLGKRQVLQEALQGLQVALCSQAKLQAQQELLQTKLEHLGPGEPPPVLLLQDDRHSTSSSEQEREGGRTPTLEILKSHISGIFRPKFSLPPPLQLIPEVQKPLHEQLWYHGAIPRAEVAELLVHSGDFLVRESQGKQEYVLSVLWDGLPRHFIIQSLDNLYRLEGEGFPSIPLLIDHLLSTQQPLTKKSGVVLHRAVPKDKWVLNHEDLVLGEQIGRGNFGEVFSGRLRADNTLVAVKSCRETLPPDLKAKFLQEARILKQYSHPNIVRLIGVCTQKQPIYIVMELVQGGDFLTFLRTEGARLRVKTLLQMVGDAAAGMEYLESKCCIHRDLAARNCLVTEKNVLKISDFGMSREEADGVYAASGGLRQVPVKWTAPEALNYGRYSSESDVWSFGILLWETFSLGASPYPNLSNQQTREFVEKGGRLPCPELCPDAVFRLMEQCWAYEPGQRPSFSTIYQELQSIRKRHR
Sequence of CaMK2b (Q13554 whole entry): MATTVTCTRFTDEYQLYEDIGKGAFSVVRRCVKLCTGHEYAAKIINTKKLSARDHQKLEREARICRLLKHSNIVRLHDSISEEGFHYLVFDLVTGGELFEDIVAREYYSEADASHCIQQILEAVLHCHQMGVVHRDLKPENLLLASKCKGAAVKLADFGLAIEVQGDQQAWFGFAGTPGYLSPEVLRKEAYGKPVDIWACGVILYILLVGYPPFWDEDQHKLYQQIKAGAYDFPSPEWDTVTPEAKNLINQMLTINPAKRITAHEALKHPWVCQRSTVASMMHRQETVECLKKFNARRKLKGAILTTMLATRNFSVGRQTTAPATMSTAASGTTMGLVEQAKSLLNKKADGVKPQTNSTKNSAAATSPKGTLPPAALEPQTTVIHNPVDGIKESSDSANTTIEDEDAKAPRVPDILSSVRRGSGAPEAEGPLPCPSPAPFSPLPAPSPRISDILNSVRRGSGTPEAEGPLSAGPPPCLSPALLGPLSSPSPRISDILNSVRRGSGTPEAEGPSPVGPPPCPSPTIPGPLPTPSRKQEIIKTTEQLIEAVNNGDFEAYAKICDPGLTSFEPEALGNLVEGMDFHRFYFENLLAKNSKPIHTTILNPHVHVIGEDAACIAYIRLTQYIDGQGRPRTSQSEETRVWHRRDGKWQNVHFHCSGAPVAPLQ
Sequence of Erk2 (P28482 whole entry): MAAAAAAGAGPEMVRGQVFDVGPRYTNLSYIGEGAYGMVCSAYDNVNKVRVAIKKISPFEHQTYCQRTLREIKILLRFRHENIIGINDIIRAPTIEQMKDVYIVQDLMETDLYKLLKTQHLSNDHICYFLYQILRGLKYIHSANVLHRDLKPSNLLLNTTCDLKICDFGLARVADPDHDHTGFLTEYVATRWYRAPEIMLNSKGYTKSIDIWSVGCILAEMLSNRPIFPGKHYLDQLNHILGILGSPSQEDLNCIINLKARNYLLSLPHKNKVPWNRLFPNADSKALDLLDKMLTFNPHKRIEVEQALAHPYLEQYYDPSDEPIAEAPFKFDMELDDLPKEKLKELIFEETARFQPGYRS

For `Cc1cccc(-c2ccc(-c3cc4cnc(NCCCN5CCCC5=O)nc4n(CCCCN)c3=O)c(Cl)c2)n1` [compound 27, MR30], the “ΔTm MR30 (27)” value (BMPR2) was -0.1 °C, the “ΔTm MR30 (27)” value (BRAF) was 2.6 °C and the “ΔTm MR30 (27)” value (CaMK2b) was -1.1 °C. For the same compound, the “ΔTm MR30 (27)” value (EphA2) was 3.6 °C, the “ΔTm MR30 (27)” value (Erk2) was 0.4 °C and the “ΔTm MR30 (27)” value (FES) was 5.0 °C. For the same compound, the “ΔTm MR30 (27)” value (GPRK5) was -1.1 °C, the “ΔTm MR30 (27)” value (JNK1) was 0.4 °C and the “ΔTm MR30 (27)” value (MAPKAPK2) was -0.3 °C. The “ΔTm MR30 (27)” value (MSSK1) was -0.4 °C, the “ΔTm MR30 (27)” value (MST2) was 5.9 °C and the “ΔTm MR30 (27)” value (NQO2A) was 0.5 °C.

For `Cc1cccc(-c2ccc(-c3cc4cnc(Nc5cc(C(F)(F)F)ccc5C)nc4n(CCCCN)c3=O)c(Cl)c2)n1` [compound 28, 8-(4-Aminobutyl)-6-(2-chloro-4-(6-methylpyridin-2-yl)phenyl)-2-((2-methyl-5-(trifluoromethyl)phenyl)amino)pyrido[2,3-d]pyrimidin-7(8H)-one], the “ΔTm 28” value (BMPR2) was -0.1 °C, the “ΔTm 28” value (BRAF) was 3.2 °C and the “ΔTm 28” value (CaMK2b) was 0.7 °C. The “ΔTm 28” value (EphA2) was 4.5 °C, the “ΔTm 28” value (Erk2) was 0.7 °C and the “ΔTm 28” value (FES) was 8.5 °C. For the same compound, the “ΔTm 28” value (GPRK5) was -0.6 °C, the “ΔTm 28” value (JNK1) was 2.8 °C and the “ΔTm 28” value (MAPKAPK2) was -0.2 °C. For the same compound, the “ΔTm 28” value (MSSK1) was -0.9 °C, the “ΔTm 28” value (MST2) was 10.1 °C and the “ΔTm 28” value (NQO2A) was -0.7 °C.

With `Cc1cccc(-c2ccc(-c3cc4cnc(NCCCN5CCNCC5)nc4n(CCCCN)c3=O)c(Cl)c2)n1` [compound 29, 8-(4-Aminobutyl)-6-(2-chloro-4-(6-methylpyridin-2-yl)phenyl)-2-((3-(piperazin-1-yl)propyl)amino)pyrido[2,3-d]pyrimidin-7(8H)-one] the “ΔTm 29” value (BMPR2) was 0.0 °C, the “ΔTm 29” value (BRAF) was 1.5 °C and the “ΔTm 29” value (CaMK2b) was -0.5 °C. For the same compound, the “ΔTm 29” value (EphA2) was 5.1 °C, the “ΔTm 29” value (Erk2) was -0.4 °C and the “ΔTm 29” value (FES) was 6.0 °C. The “ΔTm 29” value (GPRK5) was -0.4 °C, the “ΔTm 29” value (JNK1) was 0.7 °C and the “ΔTm 29” value (MAPKAPK2) was -0.2 °C. For the same compound, the “ΔTm 29” value (MSSK1) was -0.3 °C, the “ΔTm 29” value (MST2) was 9.1 °C and the “ΔTm 29” value (NQO2A) was 0.3 °C.

In the case of `Cc1cccc(-c2ccc(-c3cc4cnc(Nc5ccc(CCCO)cc5)nc4n(CCCCN)c3=O)c(Cl)c2)n1` [compound 30, 8-(4-Aminobutyl)-6-(2-chloro-4-(6-methylpyridin-2-yl)phenyl)-2-((4-(3-hydroxypropyl)phenyl)amino)pyrido[2,3-d]pyrimidin-7(8H)-one], the “ΔTm 30” value (BMPR2) is reported as -0.2 °C, the “ΔTm 30” value (BRAF) is reported as 6.2 °C and the “ΔTm 30” value (CaMK2b) is reported as 0.3 °C. For the same compound, the “ΔTm 30” value (EphA2) was 7.7 °C, the “ΔTm 30” value (Erk2) was 3.5 °C and the “ΔTm 30” value (FES) was 9.1 °C. The “ΔTm 30” value (GPRK5) was -0.9 °C, the “ΔTm 30” value (JNK1) was 2.8 °C and the “ΔTm 30” value (MAPKAPK2) was -0.3 °C. The “ΔTm 30” value (MSSK1) was -0.2 °C, the “ΔTm 30” value (MST2) was 15.0 °C and the “ΔTm 30” value (NQO2A) was -0.2 °C.

`Cc1cccc(-c2ccc(-c3cc4cnc(Nc5ccc(O)cc5)nc4n(CCCCN)c3=O)c(Cl)c2)n1` [compound 31, 8-(4-Aminobutyl)-6-(2-chloro-4-(6-methylpyridin-2-yl)phenyl)-2-((4-hydroxyphenyl)amino) pyrido[2,3-d]pyrimidin-7(8H)-one] was tested, and the “ΔTm 31” value (BMPR2) was 1.0 °C, the “ΔTm 31” value (BRAF) was 5.0 °C and the “ΔTm 31” value (CaMK2b) was -0.4 °C. The “ΔTm 31” value (EphA2) was 8.1 °C, the “ΔTm 31” value (Erk2) was 1.3 °C and the “ΔTm 31” value (FES) was 8.7 °C. The “ΔTm 31” value (GPRK5) was -0.2 °C, the “ΔTm 31” value (JNK1) was 2.7 °C and the “ΔTm 31” value (MAPKAPK2) was -0.1 °C. For the same compound, the “ΔTm 31” value (MSSK1) was 0.0 °C, the “ΔTm 31” value (MST2) was 14.3 °C and the “ΔTm 31” value (NQO2A) was -0.3 °C.

In the case of `Cc1cccc(-c2ccc(-c3cc4cnc(Nc5ccc(C)c(O)c5)nc4n(CCCCN)c3=O)c(Cl)c2)n1` [compound 32, 8-(4-Aminobutyl)-6-(2-chloro-4-(6-methylpyridin-2-yl)phenyl)-2-((3-hydroxy-4-methylphenyl)amino)pyrido[2,3-d]pyrimidin-7(8H)-one], the “ΔTm 32” value (BMPR2) is reported as -0.4 °C, the “ΔTm 32” value (BRAF) is reported as 5.7 °C and the “ΔTm 32” value (CaMK2b) is reported as 0.3 °C. The “ΔTm 32” value (EphA2) was 7.9 °C, the “ΔTm 32” value (Erk2) was 1.9 °C and the “ΔTm 32” value (FES) was 8.8 °C. For the same compound, the “ΔTm 32” value (GPRK5) was -0.4 °C, the “ΔTm 32” value (JNK1) was 1.9 °C and the “ΔTm 32” value (MAPKAPK2) was -0.1 °C. For the same compound, the “ΔTm 32” value (MSSK1) was -0.2 °C, the “ΔTm 32” value (MST2) was 14.7 °C and the “ΔTm 32” value (NQO2A) was -0.2 °C.
